Experiments:
Type in all cases: cell-based, human
[1] = test system: lung cancer cell lines; assay: MTT cell viability assay, panel of lung cancer cell lines
From the text: Cell lines, cell culture, biochemical reagents, and antibodies. MiaPaCa-2, AsPC-1, and Panc-1 human pancreatic cancer cells, MCF-7 and MDA-MB-231 breast cancer cells, SCC4 and SCC2059 oral cancer cells, PC-3 and LNCaP prostate cancer cells, H157, H460, H1975, PC-9 and H1650 lung cancer cells were obtained from the American Type Culture Collection (ATCC, Manassas, Va.). All these cells were maintained in recommended growth medium (RPMI 1640 or DMEM) supplemented with 10% fetal bovine serum (FBS) (Invitrogen, Carlsbad, Calif., USA) and antibiotics at 37° C. in a humidified incubator containing 5% CO2. For SILAC experiments, PC-9 cells were grown in SILAC DMEM medium (Thermo Fisher) supplemented with 10% dialyzed FBS and 100 μg/mL each of unlabeled L-arginine and L-lysine (light medium) or ^13C/^15N stable isotope-labeled L-arginine and L-lysine (heavy medium). […]
Cell viability assays. Drug effects on cell viability was assessed by 3-(4,5-dimethylthiazol-2-yl)-2,5-diphenyltetrazolium bromide ([…]) assays. […] The medium was then removed from each well and replaced with DMSO to dissolve the reduced MTT dye for subsequent colorimetric measurement of absorbance at 560 nm. Cell viabilities are expressed as percentages of viable cells relative to the corresponding vehicle-treated control group.

[2] = test system: pyruvate kinase activity in PC-9 cells; assay: Pyruvate kinase activity assay in PC-9 cells; details: 0.25 μM, 6 hours, relative to vehicle control
Experimental: Pyruvate kinase activity assays. PC-9 cells were seeded into 6 cm dishes at a concentration of 5×10^5 cells/mL. After 24 hours, cells were treated with 0.25 μM compound 1 or DMSO for 6 hours. The pyruvate kinase activity of compound 1-treated PC-9 and vehicle control cells was measured by using a commercial colorimetric assay kit from BioVision (Milpitas, Calif., USA) according to the manufacturer's protocol. In addition, to verify the specificity of compound 1 toward PKM2 versus PKM1, the inhibition of the kinase activity of recombinant PKM1 (SRP0415, Sigma-Aldrich) and recombinant PKM2 (SAE0021, Sigma-Aldrich) by compound 1 was conducted using the aforementioned assay kit.

[3] = test system: PKM2, EGFR, Stat3, β-catenin in PC-9 cells; assay: Immunoblot analysis of oncogenic effectors in PC-9 cells; details: Western blot, 24 hours
Experimental: Immunoblot analysis. PC-9 cells were seeded into 6 cm dish at a concentration of 5×10^5 cells/mL. After 24 hours, cells were treated with 0-1 μM compound 1 or DMSO alone for 24 hours. The cells were harvested at 24 hours, and protein extractions were carried out. The protein lysate was subjected to 10% SDS-PAGE and transferred to a nitrocellulose membrane (GE Healthcare Life Sciences). Protein expression was analyzed by Western blotting using primary antibodies against PKM2, EGFR, p-STAT3, STAT3, p-β-catenin (Cell Signaling Technology), β-catenin (Santa Cruz Biotechnology) and β-actin (Sigma-Aldrich), followed by incubation with horseradish peroxidase-conjugated secondary (Jackson ImmunoResearch Laboratories). Specific proteins were detected by chemiluminescence using ECL Plus Western Blotting Detection Reagents (GE Healthcare Biosciences).

[4] = test system: PC-9 cells; assay: ABPP-SILAC proteomic target identification; details: 1 μM, 1 hour, LC-MS/MS
Experimental: As part of our effort to identify compound 1's target(s), we embarked on the use of compound 2 as an ABPP probe to conduct SILAC-based proteomic analysis. […] In this experiment, PC-9 cells were grown in cultural medium supplemented with unlabeled L-arginine and L-lysine (light medium) versus ^13C/^15N stable isotope-labeled L-arginine and L-lysine (heavy medium), generating two populations of cells (light versus heavy cells). Heavy PC-9 cells were then exposed to the ABPP (1 μM) for 1 hour to allow intracellular labelling of target proteins, while light cells were treated with DMSO vehicle under the same condition. […] These peptide mixtures were analyzed by liquid chromatography-tandem mass spectrometry (LC-MS/MS), and the resulting data were searched against various primary sequence databases by using the Mascot search engine. […]
SILAC analysis and click chemistry. […] The supernatant was transferred to a 1.5 mL microfuge tube, and the protein concentration was determined by the BCA protein assay (Thermo Fisher Scientific) and then normalized to 1 mg/mL. […]
Proteomic data analysis. Putative target proteins of compound 1 and protein-protein interaction network were identified and analyzed, respectively, through a web-based search of the STRING database (https://string-db.org/). […]

Structure (SMILES) | antiproliferative effect in lung cancer cell lines [1] | pyruvate kinase activity in cells [2] | expression and/or phosphorylation of PKM2, EGFR, Stat3, β-catenin [3] | protein targets labelled by ABPP probe [4]
C#CC(=O)Nc1ccc(-n2nc(CCc3nnc(C)o3)cc2-c2ccc(-c3ccc(C(F)(F)F)cc3)cc2)cc1 [compound 3] | high antiproliferative potencies | equipotent in suppressing PKM2 kinase activity relative to compound 1 | high efficacy in suppressing the phosphorylation/expression of various oncogenic biomarkers | 
C#CCOc1ccc(-c2ccc(-c3cc(CCC(=O)NC)nn3-c3ccc(NC(=O)C#C)cc3)cc2)cc1 [compound 2, N-(4-(3-(3-(Methylamino)-3-oxopropyl)-5-(4′-(prop-2-yn-1-yloxy)-[1,1′-biphenyl]-4-yl)-1H-pyrazol-1-yl)phenyl)propiolamide] | pattern of growth inhibition similar to that of compound 1 |  |  | the protein with the highest matching score was the 58 kDa PKM2
